Measurements published in patent US7291710B2, “Detection of spectrin and spectrin proteolytic cleavage products in assessing nerve cell damage” (priority 2002, dated 2007).
Where a SMILES comes first, the peptide text is derived from it.

What was measured:
[1] = test system: calpain and caspase-3 activation in septo-hippocampal cultures; test: Treatment of septo-hippocampal cultures with calpain, caspase and protein synthesis inhibitors; format: cell-based, rat; conditions: for antagonism of calpain and caspase-3 activation accompanying staurosporine-induced apoptosis: 37.5 μM CalpInh-II, 30 μM Z-D-DCB, pretreatment 1 hour
Description: (§1) Septo-hippocampal cultures. Eighteen day old rat fetuses were removed from deeply anesthetized dams. Septi and hippocampi were dissected in a dissection buffer (HBSS, with 4.2 mM bicarbonate, 1 mM pyruvate, 20 mM HEPES, 3 mg/ml BSA, pH 7.25). After rinsing in DMEM-DM, tissue was dissociated by trituration through the narrow pore of a flame-constricted Pasteur pipette. Dissociated cells were resuspended in DMEM with 10% fetal calf serum (DMEM-10S) and plated on 24-well poly-L-lysine coated plastic culture plates or 12 mm of German glass (Erie Scientific Co.) at a density of 4.36×10^5 cells/mL. Cultures were maintained in a humidified incubator in an atmosphere of 5% CO2 at 37° C. After 5 days of culture, the media was changed to DMEM-DM. […] Subsequent media changes were carried out three times a week. By day 10 in vitro, astrocytes formed a confluent monolayer beneath morphologically mature neurons.
Treatment of septo-hippocampal cultures with calpain, caspase, and protein synthesis inhibitors. Sister cultures were pretreated with either 37.5 μM calpain inhibitor-II (CalpInh-II) (Boehringer Mannheim), 30 μM of the pan-caspase inhibitor Z-D-DCB (obtained from Biochem), or 1 μg/mL of the protein synthesis inhibitor, cycloheximide (Sigma), […] The inhibitor concentrations provide optimal inhibition of calpains, caspase-3 (CPP32) proteases, and protein synthesis. […] This investigation also employed degradation of αII-spectrin to provide independent confirmation that the concentrations of CalpInh-II and Z-D-DCB used in this study to inhibit calpains and caspase-3 proteases. […] Following each experiment, cells were fixed for staining, or protein or DNA extraction was performed.
SDS-Polyacrylamide Gel electrophoresis and immunoblotting. At the end of an experiment, cells were harvested from 5 identical culture wells and collected in 15 ml centrifuge tubes and centrifuged at 3000 g for 5 min. The medium was removed and the pellet cells were rinsed with 1× DPBS. […]

[2] = test system: septo-hippocampal cultures; test: αII-spectrin immunoblot of septo-hippocampal cultures after maitotoxin or staurosporine insult; format: cell-based, rat; conditions: maitotoxin 30 min, 1 hr; staurosporine 3 hr; anti-α-spectrin antibody FG 6090
Description: as §1, with “By day 10 in vitro, astrocytes formed a confluent monolayer beneath morphologically mature neurons.” left out
Pharmacological treatment of septo-hippocampal cells with maitotoxin. Ten day old septo-hippocampal cultures were challenged with 0.01-2.0 nM of maitotoxin (Wako Products, Richmond, Va., Cat.# 131-10731) in DMEM-DM and cell viability was monitored at various post-injury time points. […]
Treatment of cultures with staurosporine. Ten day old septo-hippocampal cultures were challenged with 0.05-2.0 μM of staurosporine (Calbiochem, La Jolla, Calif., Cat. # 569397) in DMEM-DM and cell viability was monitored at various post-injury time points. […]

| Compound | antagonism of calpain and caspase-3 activation accompanying staurosporine-induced apoptosis [1] | type of cell death and protease-specific SBDP detected [2] | further results |
| --- | --- | --- | --- |
| CSCC[C@@H](C=O)NC(=O)[C@H](CC(C)C)NC(=O)[C@H](CC(C)C)NC(C)=O [CalpInh-II, N-acetyl-Leu-Leu-methioninal] (Ac-Leu-Leu-Met-aldehyde) | could antagonize calpain and caspase-3 activation |  |  |
| CN[C@@H]1C[C@H]2O[C@@](C)([C@@H]1OC)n1c3ccccc3c3c4c(c5c6ccccc6n2c5c31)C(=O)NC4 [staurosporine] |  | apoptotic cell death mediated by caspase-3 (120 kDa SBDP) but not by calpain (145 kDa SBDP) |  |
| C[C@@H]1C[C@@H]([C@H](O)CC2CC(=O)NC(=O)C2)C(=O)[C@@H](C)C1 [cycloheximide] |  |  | effect on calpain and caspase activation and apoptotic cell death ([1]; 1 μg/mL cycloheximide): blocked calpain and caspase activation as well as apoptotic cell death |
| O=C(O)CC(NC(=O)OCc1ccccc1)C(=O)COC(=O)c1c(Cl)cccc1Cl [Z-D-DCB, carbobenzoxy-Asp-CH2—OC (O)-2-6-dichlorobenzene] | could antagonize calpain and caspase-3 activation |  |  |
| C=CC[C@H](C)[C@H](C)C[C@@H](O)[C@H](O)[C@@H]1CC[C@@]2(C)O[C@@]3(C)C[C@@]4(C)O[C@H]5/C=C\C[C@H]6O[C@H]7C[C@H]8O[C@H]9C[C@@]%10(C)O[C@@](C)([C@@H]%11CC[C@H]%12O[C@@]%13(C)C[C@H]%14O[C@@]%15(C)C[C@H]%16O[C@@]%17(C)C[C@@H](O)[C@H]([C@@H]%18O[C@H]%19[C@H](O)[C@@H](O)[C@H](C[C@H](O)C[C@@H](O)[C@@H]%20O[C@H]%21[C@H](O)[C@@H](O)[C@H]([C@@H]%22O[C@@H]%23[C@H](O)[C@H]%24O[C@H]%25C[C@H]%26O[C@@H](C[C@H](O)[C@@H](O)[C@H]%27O[C@H]%28[C@H](O)[C@H]%29O[C@H]%30C[C@H]%31O[C@H]%32[C@@H](O)[C@@H](O)[C@H]([C@H](C)[C@H](O)[C@H](C)CC[C@H](OS(=O)(=O)O)[C@H](O)[C@H](C)C[C@@H](O)C(=C)/C(C)=C/CO)O[C@@H]%32[C@H](O)C[C@]%31(C)O[C@@H]%30C[C@]%29(C)O[C@@H]%28C[C@H]%27O)[C@H](OS(=O)(=O)O)[C@H](O)[C@@H]%26O[C@@H]%25C[C@@H]%24O[C@H]%23[C@H](O)[C@H]%22O)O[C@H]%21C[C@H]%20O)O[C@H]%19C[C@H]%18O)O[C@@H]%17[C@H](O)[C@]%16(C)O[C@@H]%15CC[C@]%14(C)O[C@@H]%13C[C@@H]%12O%11)[C@H](O)C[C@@H]%10O[C@]9(C)CC[C@]8(C)O[C@]7(C)C[C@@H]6O[C@@H]5C[C@@H]4O[C@@H]3C[C@@H]2O1 [maitotoxin] |  | necrotic cell death mediated by calpain (145 kDa SBDP) but not caspase-3 (120 kDa SBDP) |  |
